This is an account of results in patent publication US20260001871A1, “TRIAZOLE DERIVATIVES AS MODULATORS OF MAS-RELATED G-PROTEIN RECEPTOR D” (ESCIENT PHARMACEUTICALS, INC., priority 2022, published 2026).

A value given as a limit tells only on which side of the number the result lay.

Sequence of human MRGPRD (Q8TDS7 whole entry): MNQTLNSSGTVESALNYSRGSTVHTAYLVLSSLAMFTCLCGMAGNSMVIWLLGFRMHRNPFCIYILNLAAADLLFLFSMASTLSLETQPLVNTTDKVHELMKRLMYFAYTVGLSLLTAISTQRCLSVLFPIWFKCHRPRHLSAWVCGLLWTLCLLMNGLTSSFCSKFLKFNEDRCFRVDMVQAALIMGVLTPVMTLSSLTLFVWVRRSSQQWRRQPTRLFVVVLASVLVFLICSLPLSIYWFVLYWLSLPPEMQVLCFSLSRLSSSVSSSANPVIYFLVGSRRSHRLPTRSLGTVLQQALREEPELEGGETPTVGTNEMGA

This experiment concerns the target human MRGPRD (Homo sapiens, UniProt Q8TDS7). The experiment is described as follows: MRGPRD antagonist activity, IP-One HTRF assay in CHO cells stably expressing human MRGPRD (versus 100 μM β-Alanine agonist). Type of experiment: cell-based. Summed up:
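CHO cells stably expressing human MRGPRD, plated overnight at 37 °C, were treated with antagonist plus agonist in Tris-HCl/NaCl/LiCl buffer pH 8, incubated 1 h at 37 °C then 1 h at room temperature. IP-1 accumulation read by HTRF; IC50 and percent antagonism of maximum efficacy averaged, SEM reported.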
Background: In TR-FRET formats the signal depends on donor and acceptor labels being close together.
As a reminder, the IC50 is the midpoint of a concentration-inhibition curve. A high value points to a need for much substance. `CCn1nc(C)c(-c2ccc(-n3nnc(C(=O)NCc4cccnc4)c3C3CC3)cc2)c1C` [Compound 9-25] registered a 50% inhibitory concentration (IC50) of 0.1 to 0.5 µM. `Cc1ccncc1CNC(=O)c1nnn(-c2ccc(-c3c(C)nn(-c4ccccc4)c3C)cc2)c1C1CC1` [Compound 9-26] had an IC50 of 0.5 to 1 µM. Compound `Cc1nn(-c2ccccc2)c(C)c1-c1ccc(-n2nnc(C(=O)Nc3ccc(NS(C)(=O)=O)cc3)c2C2CC2)cc1` [Compound 9-27] yielded a concentration for half-maximal inhibition (IC50) of 0.5 to 1 µM. For the compound `CCn1nc(C)c(-c2ccc(-n3nnc(C(=O)Nc4ccc(NS(C)(=O)=O)cc4)c3C3CC3)cc2)c1C` [Compound 9-28], the IC50 was 0.5 to 1 µM. For `Cc1nn(-c2ccccc2)c(C)c1-c1ccc(-n2nnc(C(=O)N3Cc4cnn(C)c4C3)c2C2CC2)cc1` [Compound 9-29] the value was 0.5 to 1 µM; for `Cc1ccc(NC(=O)c2nnn(-c3ccc(-c4ccc(C#N)cc4C)cc3)c2C2CC2)cn1` [Compound 9-30], 1 to 3 µM; for `CCc1ccc(C2(NC(=O)c3nnn(-c4ccc(-c5c(C)nn(CC)c5C)cc4)c3C3CC3)CC2)cn1` [Compound 9-31], 1 to 3 µM.

As for `CCn1nc(C)c(-c2ccc(-n3nnc(C(=O)N4Cc5cnn(C)c5C4)c3C3CC3)cc2)c1C` [Compound 9-32], the IC50 fell in the range of 1 to 3 µM. For `CCc1ccc(C2(NC(=O)c3nnn(-c4ccc(-c5c(C)nn(C)c5C)cc4)c3C3CC3)CC2)cn1` [Compound 9-33] the value was 1 to 3 µM; for `Cc1nn(C)c(C)c1-c1ccc(-n2nnc(C(=O)Nc3ccc(NS(C)(=O)=O)cc3)c2C2CC2)cc1` [Compound 9-34], 1 to 3 µM; for `COc1ccc(C2(NC(=O)c3nnn(-c4ccc(-c5ccc(C#N)c(F)c5)cc4)c3C3CC3)CC2)cn1` [Compound 9-35], 0.1 to 0.5 µM. `N#Cc1ccc(-c2ccc(-n3nnc(C(=O)Nc4ccnc(F)c4)c3C3CC3)cc2)cc1F` [Compound 9-36] showed a concentration for half-maximal inhibition (IC50) of 0.1 to 0.5 µM. In the case of `N#Cc1ccc(-c2ccc(-n3nnc(C(=O)Nc4cc(F)nc(F)c4)c3C3CC3)cc2)cc1F` [Compound 9-37] it was 0.5 to 1 µM. In the case of `Cc1cc(NC(=O)c2nnn(-c3ccc(-c4c(C)nn(-c5ccccc5)c4C)cc3)c2C2CC2)ccn1` [Compound 10-1, 5-cyclopropyl-1-(4-(3,5-dimethyl-1-phenyl-1H-pyrazol-4-yl)phenyl)-N-(2-methylpyridin-4-yl)-1H-1,2,3-triazole-4-carboxamide], the concentration for half-maximal inhibition (IC50) was < 0.1 µM. Turning to `Cc1nn2cccnc2c1-c1ccc(-n2nnc(C(=O)NC3(c4cncc(Cl)c4)CC3)c2C2CC2)cc1` [Compound 10-2], the IC50 was > 3 µM. For `Cc1cc(NC(=O)c2nnn(-c3ccc(-c4c(C)nn5cccnc45)cc3)c2C2CC2)ccn1` [Compound 10-3] the value was < 0.1 µM; for `CCc1cc(NC(=O)c2nnn(-c3ccc(-c4c(C)nn5cccnc45)cc3)c2C2CC2)ccn1` [Compound 10-4], 0.1 to 0.5 µM; for `Cc1ccc(CNC(=O)c2nnn(-c3ccc(-c4c(C)nn5cccnc45)cc3)c2C2CC2)cn1` [Compound 10-5], 0.1 to 0.5 µM.

For `CCn1cc(CNC(=O)c2nnn(-c3ccc(-c4c(C)nn5cccnc45)cc3)c2C2CC2)cn1` [Compound 10-6], the concentration for half-maximal inhibition (IC50) lay within 0.1 to 0.5 µM. As for `Cc1nn2cccnc2c1-c1ccc(-n2nnc(C(=O)Nc3ccc(NS(C)(=O)=O)cc3)c2C2CC2)cc1` [Compound 10-7], the IC50 was 1 to 3 µM.

As to `CCc1ccc(C2(NC(=O)c3nnn(-c4ccc(-c5c(C)nn6cccnc56)cc4)c3C3CC3)CC2)cn1` [Compound 10-8], the IC50 lay in the range of 1 to 3 µM.

Consider `CCn1cc(CNC(=O)c2nnn(-c3ccc(-c4c(C)nn(-c5ccccc5)c4C)cc3)c2C2CC2)cn1` [Compound 10-9], for which the half-maximal inhibitory concentration (IC50) is < 0.1 µM. Turning to `Cc1cc(NC(=O)c2nnn(-c3ccc(-c4c(C)nn(C)c4C)cc3)c2C(C)C)ccn1` [Compound 10-10], the half-inhibitory concentration (IC50) was < 0.1 µM. For `CCn1cc(CNC(=O)c2nnn(-c3ccc(-c4c(C)nn5ccccc45)cc3)c2C(C)C)cn1` [Compound 10-11] the value was < 0.1 µM.

As for `Cc1cc(NC(=O)c2nnn(-c3ccc(-c4c(C)nn5ccccc45)cc3)c2C(C)C)ccn1` [Compound 10-12], the IC50 lay in the range of 0.1 to 0.5 µM. For `Cc1nn(C)c(C)c1-c1ccc(-n2nnc(C(=O)Nc3ccncc3)c2C2CC2)nc1` [Compound 11-1, 5-cyclopropyl-N-(pyridin-4-yl)-1-(5-(1,3,5-trimethyl-1H-pyrazol-4-yl)pyridin-2-yl)-1H-1,2,3-triazole-4-carboxamide], the IC50 lay within 0.1 to 0.5 µM. In the case of `Cc1cc(NC(=O)c2nnn(-c3ccc(-c4ccc(C#N)cc4)cn3)c2C2CC2)ccn1` [Compound 11-2], the IC50 was 0.1 to 0.5 µM.

As to `Cc1cc(NC(=O)c2nnn(C3CC=C(c4c(C)nn(C)c4C)CC3)c2C2CC2)ccn1` (stereo not drawn) [Compound 12-1, 5-cyclopropyl-N-(2-methylpyridin-4-yl)-1-(4-(1,3,5-trimethyl-1H-pyrazol-4-yl)cyclohex-3-en-1-yl)-1H-1,2,3-triazole-4-carboxamide], the IC50 lay in the range of 0.1 to 0.5 µM. Regarding `Cc1n[nH]c2ncnc(NC(=O)c3nnn(C4CC=C(c5ccc(C#N)cc5)CC4)c3C3CC3)c12` (stereo not drawn) [Compound 12-2], the concentration for half-maximal inhibition (IC50) was in the range of 0.1 to 0.5 µM. Take `Cc1cc(NC(=O)c2nnn(C3CC=C(c4c(C)nn(-c5ccccc5)c4C)CC3)c2C2CC2)ccn1` (stereo not drawn) [Compound 12-3]: the half-maximal inhibitory concentration (IC50) was in the range of 0.5 to 1 µM.

`Cc1cc(NC(=O)c2nnn(C3CC=C(c4ccc(F)cc4)CC3)c2C2CC2)ccn1` (stereo not drawn) [Compound 12-4] displayed an IC50 of 0.5 to 1 µM.

Consider `Cc1cc(NC(=O)c2nnn(C3CC=C(c4c(C)nn5ccccc45)CC3)c2C2CC2)ccn1` (stereo not drawn) [Compound 12-5], for which the IC50 lay within 0.5 to 1 µM. The compound `Cn1cc(C2(NC(=O)c3nnn(C4CC=C(c5ccc(C#N)cc5)CC4)c3C3CC3)CC2)cn1` (stereo not drawn) [Compound 12-6] displayed a 50% inhibitory concentration (IC50) of 1 to 3 µM.

On to `Cc1cc(NC(=O)c2nnn(C3CC=C(c4ccc(CC#N)cc4)CC3)c2C2CC2)ccn1` (stereo not drawn) [Compound 12-7], for which the IC50 is 1 to 3 µM. In the case of `CCn1cc(CNC(=O)c2nnn(C3CC=C(c4ccc(C#N)cc4)CC3)c2C2CC2)cn1` (stereo not drawn) [Compound 12-8] it was 1 to 3 µM. In the case of `N#Cc1ccc(C2=CCC(n3nnc(C(=O)NC4(c5cccnc5)CC4)c3C3CC3)CC2)cc1` (stereo not drawn) [Compound 12-9] it was 1 to 3 µM.

Compound `Cc1cc(NC(=O)c2nnn(C3CCC(c4c(C)nn(C)c4C)CC3)c2C2CC2)ccn1` (stereo not drawn) [Compound 13-1, 5-cyclopropyl-N-(2-methylpyridin-4-yl)-1-(4-(1,3,5-trimethyl-1H-pyrazol-4-yl)cyclohexyl)-1H-1,2,3-triazole-4-carboxamide] showed a 50% inhibitory concentration (IC50) of 1 to 3 µM. In the case of `COc1ccccc1CCNC(=O)c1nnn(-c2ccc(-c3ccccc3)cc2)c1C1CC1` [Compound 14-1] it was > 3 µM; in that of `CC(C)(C)n1cc(NC(=O)c2nnn(-c3ccc(-c4ccccc4)cc3)c2C2CC2)cn1` [Compound 14-2], > 3 µM; in that of `CC(NC(=O)c1nnn(-c2ccc(-c3ccccc3)cc2)c1C1CC1)c1nccs1` (stereo not drawn) [Compound 14-3], > 3 µM.

As for `Cc1nn(C(=O)c2nnn(-c3ccc(-c4ccccc4)cc3)c2C2CC2)c2cccc(N)c12` [Compound 14-4], the IC50 is > 3 µM.

Regarding `Cc1[nH]ncc1CNC(=O)c1nnn(-c2ccc(-c3ccccc3)cc2)c1C1CC1` [Compound 14-5], the concentration for half-maximal inhibition (IC50) is > 3 µM. Take `O=C(NC1(c2ccccc2)CCC1)c1nnn(-c2ccc(-c3ccccc3)cc2)c1C1CC1` [Compound 14-6]: the IC50 was > 3 µM. In the case of `O=C(NCC1CCCO1)c1nnn(-c2ccc(-c3ccccc3)cc2)c1C1CC1` (stereo not drawn) [Compound 14-7], the IC50 was > 3 µM. As to `CC(NC(=O)c1nnn(-c2ccc(-c3ccccc3)cc2)c1C1CC1)c1cncnc1` (stereo not drawn) [Compound 14-8], the IC50 was > 3 µM.

`O=C(NCCc1ncn[nH]1)c1nnn(-c2ccc(-c3ccccc3)cc2)c1C1CC1` [Compound 14-9]: the half-maximal inhibitory concentration (IC50) was > 3 µM. For `Cn1ncc(NC(=O)c2nnn(-c3ccc(-c4ccccc4)cc3)c2C2CC2)c1Cl` [Compound 14-10] the value was > 3 µM; for `O=C(NCc1cscn1)c1nnn(-c2ccc(-c3ccccc3)cc2)c1C1CC1` [Compound 14-11], > 3 µM. In the case of `CCn1nc(C)cc1NC(=O)c1nnn(-c2ccc(-c3ccccc3)cc2)c1C1CC1` [Compound 14-12] it was > 3 µM. For `Cc1nc(C(C)NC(=O)c2nnn(-c3ccc(-c4ccccc4)cc3)c2C2CC2)cs1` (stereo not drawn) [Compound 14-13] the value was > 3 µM; for `Cc1nn(C)c2ncnc(NC(=O)c3nnn(-c4ccc(-c5ccccc5)cc4)c3C3CC3)c12` [Compound 14-14], > 3 µM; for `CCc1cc(NC(=O)c2nnn(-c3ccc(-c4ccccc4)cc3)c2C2CC2)ccn1` [Compound 14-15, 1-([1,1′-biphenyl]-4-yl)-5-cyclopropyl-N-(2-ethylpyridin-4-yl)-1H-1,2,3-triazole-4-carboxamide], 0.1 to 0.5 µM. With `CC(C)c1cc(NC(=O)c2nnn(-c3ccc(-c4ccccc4)cc3)c2C2CC2)ccn1` [Compound 14-16, 1-([1,1′-biphenyl]-4-yl)-5-cyclopropyl-N-(2-isopropylpyridin-4-yl)-1H-1,2,3-triazole-4-carboxamide], the IC50 fell in the range of 0.1 to 0.5 µM. For `Cn1ncc2c1CN(C(=O)c1nnn(-c3ccc(-c4ccccc4)cc3)c1C1CC1)C2` [Compound 14-17] the value was 0.1 to 0.5 µM; for `C#Cc1cc(NC(=O)c2nnn(-c3ccc(-c4ccccc4)cc3)c2C2CC2)ccn1` [Compound 14-18], 0.1 to 0.5 µM; for `CS(=O)(=O)Nc1ccc(NC(=O)c2nnn(-c3ccc(-c4ccccc4)cc3)c2C2CC2)cc1` [Compound 14-19], 0.5 to 1 µM. `Cc1ccc(CNC(=O)c2nnn(-c3ccc(-c4ccccc4)cc3)c2C2CC2)cn1` [Compound 14-20] yielded an IC50 of 0.5 to 1 µM. In the case of `Cc1csc(CNC(=O)c2nnn(-c3ccc(-c4ccccc4)cc3)c2C2CC2)n1` [Compound 14-21] it was 0.5 to 1 µM; in that of `O=C(Nc1ccnc(C(F)F)c1)c1nnn(-c2ccc(-c3ccccc3)cc2)c1C1CC1` [Compound 14-22], 0.5 to 1 µM; in that of `COc1cc(NC(=O)c2nnn(-c3ccc(-c4ccccc4)cc3)c2C2CC2)cc(C)n1` [Compound 14-23], 0.5 to 1 µM.
